This assay has as its system Saccharomyces cerevisiae. In words: DNA damaging activity against Sc-7 yeast assessed as drug level required to produce 12 mm zone of inhibition. The assay is classed as functional.

`C[C@@H]1O[C@@H](Oc2cc3c(=O)oc4c(O)c(O)cc5c(=O)oc(c2O)c3c45)[C@H](O)[C@H](O)[C@H]1O` [ESCHWEILENOL C]: the IC12 is 2000 µg/mL.
As for `O=c1oc2c(O)c(Oc3ccc(O)c(O)c3O)cc3c(=O)oc4c(O)c(O)cc1c4c23` [ESCHWEILENOL A], the IC12 stood at 1000 µg/mL.

The values are drawn from ChEMBL document CHEMBL1150920, “Three new ellagic acid derivatives from the bark of Eschweilera coriacea from the Suriname rainforest” (1998).
